US10450263B2, “Benzo annulenes as antiviral agents” (Southern Research Institute, priority 2017, dated 2019)
Where two headings read alike, the source gives them in different places.

What was measured:
[1] = system: Chikungunya virus; test: Evaluation of antiviral activity against Chikungunya virus (EC90); format: cell-based
Description: EC90 refers to the concentration of the compound that is required for 90% antagonism or inhibition of CHIKV. EC90 also refers to the concentration of a substance that is required for 90% antagonism or inhibition of CHIKV in vivo.
(§1) The compounds below in Table 1 were synthesized with methods identical or analogous to those described herein. The requisite starting materials were commercially available, described in the literature, or readily synthesized by one skilled in the art of organic synthesis.

[2] = CC50 reported alongside the CHIKV antiviral assay (cytotoxicity); format: cell-based; conditions: cell line not given
Description: as §1

[3] = Chikungunya virus, read-out: EC90 (μM) CHIKV, concentration required for 90% inhibition of CHIKV

Molecule | EC90 ([1]; concentration required for 90% inhibition of CHIKV, read-out: EC90 (μM) CHIKV) [µM] | CC50 [2] [µM] | EC90 [1, 3] [µM] | EC90 ([1]; read-out: EC90 (μM) CHIKV, concentration required for 90% inhibition of CHIKV) [µM]
3,5-Difluoro-N-(3-methoxy-6,7,8,9-tetrahydro-5H-benzo[7]annulen-2-yl)picolinamide [Compound 77] | 2.9 | > 30 | – | –
COc1cc2c(cc1NC(=O)c1ccc(C(C)(C)C)cc1)CCCCC2 [Compound 3, 4-(tert-Butyl)-N-(3-methoxy-6,7,8,9-tetrahydro-5H-benzo[7]annulen-2-yl)benzamide] | – | > 30 | – | –
CC(C)(C)c1ccc(C(=O)Nc2cc3c(cc2C#N)CCCCC3)cc1 [Compound 12, 4-(tert-Butyl)-N-(3-cyano-6,7,8,9-tetrahydro-5H-benzo[7]annulen-2-yl)benzamide] | – | 17 | 4.4 | –
CC(C)(C)c1ccc(C(=O)Nc2cc3c(cc2OC(F)(F)F)CCCCC3)cc1 [Compound 13, 4-(tert-butyl)-N-(3-(trifluoromethoxy)-6,7,8,9-tetrahydro-5H-benzo[7]annulen-2-yl)benzamide] | – | > 25 | 13.7 | –
CC(C)(C)c1ccc(C(=O)Nc2cc3c(cc2C(F)(F)F)CCCCC3)cc1 [Compound 14, 4-(tert-butyl)-N-(3-(trifluoromethyl)-6,7,8,9-tetrahydro-5H-benzo[7]annulen-2-yl)benzamide] | – | > 30 | > 30 | –
CC(C)(C)c1ccc(C(=O)Nc2cc3c(cc2O)CCCCC3)cc1 [Compound 15, 4-(tert-butyl)-N-(3-hydroxy-6,7,8,9-tetrahydro-5H-benzo[7]annulen-2-yl)benzamide] | – | > 30 | 0.4 | –
CC(=O)Oc1cc2c(cc1NC(=O)c1ccc(C(C)(C)C)cc1)CCCCC2 [Compound 16, 3-(4-(tert-Butyl)benzamido)-6,7,8,9-tetrahydro-5H-benzo[7]annulen-2-yl acetate] | – | > 30 | 2.8 | –
CC(C)(C)c1ccc(C(=O)Nc2cc3c(cc2OCc2ccc(C(F)(F)F)cc2)CCCCC3)cc1 [Compound 17, 4-(tert-Butyl)-N-(3-((4-(trifluoromethyl)benzyl)oxy)-6,7,8,9-tetrahydro-5H-benzo[7]annulen-2-yl)benzamide] | – | > 30 | > 30 | –
CC(C)(C)c1ccc(C(=O)Nc2ccc3c(c2)CCCCC3)cc1 [Compound 19, 4-(tert-Butyl)-N-(6,7,8,9-tetrahydro-5H-benzo[7]annulen-2-yl)benzamide] | – | 79.1 | 0.7 | –
CC(C)(C)c1ccc(C(=O)Nc2cc3c(cc2N)CCCCC3)cc1 [Compound 20, N-(3-amino-6,7,8,9-tetrahydro-5H-benzo[7]annulen-2-yl)-4-(tert-butyl)benzamide] | – | > 30 | > 30 | –
COCCOc1cc2c(cc1NC(=O)c1ccc(C(C)(C)C)cc1)CCCCC2 [Compound 21, 4-(tert-Butyl)-N-(3-(2-methoxyethoxy)-6,7,8,9-tetrahydro-5H-benzo[7]annulen-2-yl)benzamide] | – | > 30 | > 30 | –
CC(C)(C)c1ccc(C(=O)Nc2cc3c(cc2[N+](=O)[O-])CCCCC3)cc1 [Compound 22, 4-(tert-butyl)-N-(3-nitro-6,7,8,9-tetrahydro-5H-benzo[7]annulen-2-yl)benzamide] | – | > 30 | > 30 | –
COc1c(NC(=O)c2ccc(C(C)(C)C)cc2)cc2c(c1F)CCCCC2 [Compound 23, 4-(tert-butyl)-N-(4-fluoro-3-methoxy-6,7,8,9-tetrahydro-5H-benzo[7]annulen-2-yl)benzamide] | – | > 30 | 12.5 | –
COc1c(NC(=O)c2cnc(C(C)(C)C)s2)cc2c(c1F)CCCCC2 [Compound 24, 2-(tert-Butyl)-N-(4-fluoro-3-methoxy-6,7,8,9-tetrahydro-5H-benzo[7]annulen-2-yl)thiazole-5-carboxamide] | – | > 30 | > 10 | –
CC(C)(C)c1ncc(C(=O)Nc2ccc3c(c2)CCCCC3)s1 [Compound 25, 2-(tert-butyl)-N-(6,7,8,9-tetrahydro-5H-benzo[7]annulen-2-yl)thiazole-5-carboxamide] | – | 15.7 | 22.6 | –
CCn1nc(C(=O)Nc2ccc3c(c2)CCCCC3)cc1C [Compound 26, 1-ethyl-5-methyl-N-(6,7,8,9-tetrahydro-5H-benzo[7]annulen-2-yl)-1H-pyrazole-3-carboxamide] | – | > 30 | > 30 | –
CC(C)(C)n1nc(C(=O)Nc2ccc3c(c2)CCCCC3)cc1C(F)(F)F [Compound 27, 1-(tert-butyl)-N-(6,7,8,9-tetrahydro-5H-benzo[7]annulen-2-yl)-5-(trifluoromethyl)-1H-pyrazole-3-carboxamide] | – | > 30 | > 10 | –
CN(C(=O)c1ccc(C(C)(C)C)cc1)c1ccc2c(c1)CCCCC2 [Compound 28, 4-(tert-butyl)-N-methyl-N-(6,7,8,9-tetrahydro-5H-benzo[7]annulen-2-yl)benzamide] | – | > 30 | > 10 | –
CC(C)(C)c1ccc(C(=O)Nc2cc3c(cc2CO)CCCCC3)cc1 [Compound 29] | – | > 30 | > 10 | –

Molecule | EC90 ([1]; concentration required for 90% inhibition of CHIKV, read-out: EC90 (μM) CHIKV) [µM] | CC50 [2] [µM] | EC90 [1, 3] [µM] | EC90 ([1]; read-out: EC90 (μM) CHIKV, concentration required for 90% inhibition of CHIKV) [µM]
COc1cc2c(cc1N(C)C(=O)c1ccc(C(C)(C)C)cc1)CCCCC2 [Compound 30] | – | > 30 | 14.5 | –
CCn1nc(C(=O)Nc2cc3c(cc2OC)CCCCC3)cc1C [Compound 31, 1-Ethyl-N-(3-methoxy-6,7,8,9-tetrahydro-5H-benzo[7]annulen-2-yl)-5-methyl-1H-pyrazole-3-carboxamide] | – | > 30 | 0.79 | –
COc1cc2c(cc1NC(=O)c1cn(C)cn1)CCCCC2 [Compound 32, N-(3-methoxy-6,7,8,9-tetrahydro-5H-benzo[7]annulen-2-yl)-1-methyl-1H-imidazole-4-carboxamide] | – | > 30 | 55.6 | –
COc1cc2c(cc1NC(=O)c1cnc(C)s1)CCCCC2 [Compound 33, N-(3-methoxy-6,7,8,9-tetrahydro-5H-benzo[7]annulen-2-yl)-2-methylthiazole-5-carboxamide] | – | > 30 | > 30 | –
COc1cc2c(cc1NC(=O)c1cc(-c3ccccc3)on1)CCCCC2 [Compound 36, N-(3-methoxy-6,7,8,9-tetrahydro-5H-benzo[7]annulen-2-yl)-5-phenylisoxazole-3-carboxamide] | – | > 30 | 9 | –
COc1cc2c(cc1NC(=O)c1ccc(C(C)(C)C)o1)CCCCC2 [Compound 37, 5-(tert-Butyl)-N-(3-methoxy-6,7,8,9-tetrahydro-5H-benzo[7]annulen-2-yl)furan-2-carboxamide] | – | > 30 | 23.2 | –
COc1cc2c(cc1NC(=O)c1ccc(C(C)(C)C)s1)CCCCC2 [Compound 38, 5-(tert-Butyl)-N-(3-methoxy-6,7,8,9-tetrahydro-5H-benzo[7]annulen-2-yl)thiophene-2-carboxamide] | – | 32 | 3.1 | –
COc1cc2c(cc1NC(=O)c1cnc(C)cn1)CCCCC2 [Compound 39, N-(3-Methoxy-6,7,8,9-tetrahydro-5H-benzo[7]annulen-2-yl)-5-methylpyrazine-2-carboxamide] | – | > 30 | – | > 30
COc1cc2c(cc1NC(=O)c1ccc3nonc3c1)CCCCC2 [Compound 40, N-(3-Methoxy-6,7,8,9-tetrahydro-5H-benzo[7]annulen-2-yl)benzo[c][1,2,5]oxadiazole-5-carboxamide] | – | > 30 | > 30 | –
COc1cc2c(cc1NC(=O)c1cccc(C(C)(C)C)c1)CCCCC2 [Compound 41, 3-(tert-Butyl)-N-(3-methoxy-6,7,8,9-tetrahydro-5H-benzo[7]annulen-2-yl)benzamide] | – | > 30 | 34.1 | –
COc1cc2c(cc1NC(=O)C13C[C@H]4C[C@@H](C1)C[C@@H](C3)C4)CCCCC2 [Compound 42, (3r,5r,7r)-N-(3-methoxy-6,7,8,9-tetrahydro-5H-benzo[7]annulen-2-yl)adamantane-1-carboxamide] | – | > 30 | 12.1 | –
COc1cc2c(cc1NC(=O)c1ccccc1C(C)(C)C)CCCCC2 [Compound 43, 2-(tert-Butyl)-N-(3-methoxy-6,7,8,9-tetrahydro-5H-benzo[7]annulen-2-yl)benzamide] | – | > 30 | 3.2 | –
COc1cc2c(cc1NC(=O)c1cnc(C(C)(C)C)s1)CCCCC2 [Compound 44, 2-(tert-Butyl)-N-(3-methoxy-6,7,8,9-tetrahydro-5H-benzo[7]annulen-2-yl)thiazole-5-carboxamide] | – | > 30 | 1.2 | –
CCn1cc(C(=O)Nc2cc3c(cc2OC)CCCCC3)c(C(F)(F)F)n1 [Compound 45, 1-Ethyl-N-(3-methoxy-6,7,8,9-tetrahydro-5H-benzo[7]annulen-2-yl)-3-(trifluoromethyl)-1H-pyrazole-4-carboxamide] | – | 34.5 | 2.95 | –
COc1cc2c(cc1NC(=O)c1ccc(C(C)(C)O)cc1)CCCCC2 [Compound 46, 4-(2-Hydroxypropan-2-yl)-N-(3-methoxy-6,7,8,9-Tetrahydro-5H-benzo[7]annulen-2-yl)benzamide] | – | 79.2 | 2.45 | –
COc1cc2c(cc1NC(=O)c1ccc(C(C)(C)CO)cc1)CCCCC2 [Compound 47] | – | 96.3 | 7.1 | –
COc1cc2c(cc1NC(=O)c1ccc(C(O)(C(F)(F)F)C(F)(F)F)cc1)CCCCC2 [Compound 48, 4-(1,1,1,3,3,3-Hexafluoro-2-hydroxypropan-2-yl)-N-(3-methoxy-6,7,8,9-tetrahydro-5H-benzo[7]annulen-2-yl)benzamide] | – | 28.9 | 2.8 | –
COc1cc2c(cc1NC(=O)c1cnc(C(C)(C)C)nc1)CCCCC2 [Compound 49, 2-(tert-Butyl)-N-(3-methoxy-6,7,8,9-tetrahydro-5H-benzo[7]annulen-2-yl)pyrimidine-5-carboxamide] | – | 37.6 | 2.99 | –
